According to paper PMC4006925, “Squalene Synthase As a Target for Chagas Disease Therapeutics” (PLoS Pathogens, 2014):

How the values were obtained:
[1] = test system: Vero cells; test: Vero (host) cell proliferation, alamarBlue; assay type: cell-based; conditions: Chlorocebus sabaeus, Vero, read-out: IC50 Vero cells (host cell growth)
Protocol: Vero cells (1.7×10^4 cells/well) were seeded in 96 well plates (black, clear bottom from Greiner Bio-One Cat#655090) in 100 µL RPMI media (Sigma Cat# R-4130) with 10% FBS. Plates were tested as described by Recher et al.

[2] = test system: T. cruzi epimastigotes; test: Sterol composition of T. cruzi epimastigotes, GC-MS; assay type: cell-based, Trypanosoma cruzi; conditions: 4 µM compound
Protocol: . Cells from cultures (96 h incubation) were washed with Buffer A with glucose (116 mM NaCl, 5.4 mM KCl, 0.8 mM MgSO4, 5.5 mM D-glucose, and 50 mM HEPES at pH 7.0) then pelleted and chloroform/methanol (2∶1 v/v) added (∼30 mL of solvent per gram of wet cells) followed by vigorous stirring and overnight incubation at 4°C. The extract was then filtered using Whatman #2 paper to eliminate insoluble material, and the filtrate (a single phase) dried under nitrogen. The extract was then re-extracted using chloroform/methanol 9/1 v/v, dried under nitrogen, dissolved in 1 mL of pure chloroform and re-dried under nitrogen gas. The extracted lipids were saponified with 5 mL of ethanolic-potassium hydroxide (5 g KOH, 7 mL water, 14 mL ethanol) for 1 hour at 80°C. After cooling, 2.5 mL of water and 1.5 mL hexane were added and the phases allowed to separate. […] Samples were analyzed on a 30 m DB5 column with 0.32 mm I.D. and 0.25 µm film thickness (Agilent Inc, Palo Alto, CA, USA) with an injection port temperature of 300°C, the interface was set to 300°C, the ion source adjusted to 230°C, MS Quadrupole 150°C. […] The spectra of all chromatogram peaks were evaluated by using the HP Chemstation (Agilent, Palo Alto, CA, USA) program. Identifications and quantifications were performed using mass spectra obtained from authentic standards and with NIST08 and W8N08 libraries (John Wiley & Sons, Inc., USA).

[3] = test system: T. cruzi epimastigotes; test: UQ9 biosynthesis in epimastigotes, LC-MS; assay type: cell-based, Trypanosoma cruzi
Protocol: For ubiquinone extraction, epimastigotes (1 g wet weight) were washed twice with buffer A with glucose (116 mM NaCl, 5.4 mM KCl, 0.8 mM MgSO4, 5.5 mM D-glucose, and 50 mM HEPES at pH 7.0). To break the cells, the pellets were frozen in a dry ice-100% ethanol bath (for 7 min) and thawed at 37°C (for 3 min) for a total of 5 times. One volume of water and three volumes of 1-propanol were added to the pellet. The samples were vortexed for 30 sec at room temperature and allowed to stand for one minute. Two volumes of n-hexane were added, the mixture vortexed for 30 sec at room temperature, then centrifuged at 12,000× g for 5 min. The upper phase, containing ubiquinone, was collected into a glass tube, and dried under nitrogen gas, then analyzed using LC-MS.
LC/MS was performed using an Agilent LC/MSD Trap XCT Plus system (Agilent Technologies, Santa Clara, CA) with an 1100 series HPLC system including a degasser, an auto-sampler, a binary pump, and a multiple-wavelength detector. The LC separation used a Phenomenex Gemini 3u C18 110A column (2 mm×100 mm) (Torrence, CA) with mobile phase A (0.1% formic acid in water) and mobile phase B (0.1% formic acid in acetonitrile). The flow-rate was 0.25 mL/min. The linear gradient was as follows: 0–1 min, 100% A; 7–50 min, 0% A; 51–56 min, 100% A. The auto-sampler was set at 5°C and the injection volume was 15 µL. UV signals were recorded at 275 nm. […]

[4] = test system: T. cruzi; test: Rescue from T. cruzi cell growth inhibition by farnesol or geranylgeraniol; assay type: cell-based, Trypanosoma cruzi

SMILES: CCCCCCCCCC[n+]1ccn(CC(P(=O)([O-])O)P(=O)(O)O)c1 (stereo not drawn) [BPH-1218]
- IC50 [1]: ~1 mM
- endogenous ergosterol and the three major ergosterol related sterols, % of total sterols ([2]; without compound 36%): 15%
- content of exogeneously-acquired cholesterol, % of total sterols ([2]; without compound 51%): 71%
- decrease in UQ9 biosynthesis [3]: ~40%
- rescue afforded by farnesol [4]: no “rescue”
- rescue by geranylgeraniol ([4]; geranylgeraniol at 40 µM): ~20%
